From patent publication US20090247559A1 (Exelixis, Inc., priority 2007, published 2009) come the findings set out here.

In one experiment the target is CDC7 (Homo sapiens, UniProt O00311). Briefly: CDC7 inhibition, biochemical chemiluminescence assay (Kinase Glo, IC50 determination). The protocol:
Characterization of CDC7 Inhibition in a Biochemical Chemiluminesence Assay (IC50 Determination):
The IC50 evaluation of compounds against the CDC7 enzyme was performed in a Chemiluminesence assay utilizing a Greiner 384-well white binding plate format. […] Upon addition of 10 μL of CDC-7 (GB) to the designated well plates and subsequent incubation for ten minutes at ambient temperature, 10 μL of ATP mix in Tris Base was added. Following an incubation period of 90 minutes at ambient temperature (24-27° C.), 20 μL of Kinase Glo (Promega) was added to measure kinase activity by quantitating the amount of ATP remaining in solution. The luminescence was measured following a Luciferase Protocol on either EnVision or Victor plate readers.

The target in experiment [1] is PIM (PIM-1, PIM-2, and/or PIM-3). Briefly: PIM-1, PIM-2 and PIM-3 inhibition, biochemical chemiluminescence assays (Kinase Glo, IC50 determination). The conditions noted are these: Table 1 activity class; PIM refers to PIM-1, PIM-2, and/or PIM-3; read-out: PIM IC50 (Activity B).
In the next experiment the target is CK2 (Homo sapiens, UniProt P68400). Briefly: CK2 inhibition, biochemical chemiluminescence holoenzyme assay (Kinase Glo, IC50 determination). The conditions noted are these: Table 1 activity class; symbol given only if active; read-out: CK2 IC50 (Activity C). An outline of the steps:
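Holoenzyme CK2 assay; compounds pre-incubated with substrate and enzyme, then reacted 150 min at 24-27° C. Remaining ATP measured as luminescence with Kinase Glo, and IC50 derived from the signal.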

[2] abbreviates: Table 1 activity class, symbol given only if active, read-out: CDC7 IC50 (Activity A).

Structures are written as SMILES. pIC50: −log10 of the molar value. Like-named read-outs stand apart in the source and are kept apart here.

Chain of CDC7 (O00311 whole entry): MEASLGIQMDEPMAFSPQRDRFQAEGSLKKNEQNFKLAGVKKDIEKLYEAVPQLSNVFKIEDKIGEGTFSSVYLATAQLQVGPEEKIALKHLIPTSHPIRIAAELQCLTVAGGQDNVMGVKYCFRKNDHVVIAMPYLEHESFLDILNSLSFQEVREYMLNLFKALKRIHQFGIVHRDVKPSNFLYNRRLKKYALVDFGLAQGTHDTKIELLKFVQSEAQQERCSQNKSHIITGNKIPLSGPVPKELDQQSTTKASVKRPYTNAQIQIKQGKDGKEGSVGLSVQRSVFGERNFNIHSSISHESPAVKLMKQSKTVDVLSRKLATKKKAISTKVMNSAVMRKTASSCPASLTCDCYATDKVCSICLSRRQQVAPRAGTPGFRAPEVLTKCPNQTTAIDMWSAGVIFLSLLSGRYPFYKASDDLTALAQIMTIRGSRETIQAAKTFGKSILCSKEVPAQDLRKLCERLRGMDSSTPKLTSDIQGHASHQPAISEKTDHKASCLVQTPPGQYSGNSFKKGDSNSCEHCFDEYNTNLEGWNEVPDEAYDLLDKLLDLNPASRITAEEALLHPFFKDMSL
Chain of CDC7 (Q9UBU7 whole entry partner): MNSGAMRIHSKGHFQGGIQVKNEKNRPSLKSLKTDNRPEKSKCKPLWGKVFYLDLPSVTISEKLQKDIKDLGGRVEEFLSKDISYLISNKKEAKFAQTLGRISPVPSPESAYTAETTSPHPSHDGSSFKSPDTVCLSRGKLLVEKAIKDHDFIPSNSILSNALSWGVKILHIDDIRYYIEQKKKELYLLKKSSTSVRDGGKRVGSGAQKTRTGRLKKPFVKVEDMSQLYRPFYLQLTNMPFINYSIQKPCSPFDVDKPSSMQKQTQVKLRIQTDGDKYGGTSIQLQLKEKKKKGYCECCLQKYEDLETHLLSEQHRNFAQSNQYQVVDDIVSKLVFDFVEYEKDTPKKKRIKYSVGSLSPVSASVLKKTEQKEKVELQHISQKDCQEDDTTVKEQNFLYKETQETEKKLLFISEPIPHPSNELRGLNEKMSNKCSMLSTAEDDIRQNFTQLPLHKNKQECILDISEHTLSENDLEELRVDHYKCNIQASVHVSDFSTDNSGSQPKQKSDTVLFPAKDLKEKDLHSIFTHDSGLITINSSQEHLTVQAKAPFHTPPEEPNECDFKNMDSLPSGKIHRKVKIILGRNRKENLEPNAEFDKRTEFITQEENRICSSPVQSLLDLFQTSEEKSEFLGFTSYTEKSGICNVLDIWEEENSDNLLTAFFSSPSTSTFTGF
Chain of CK2 (P68400 whole entry): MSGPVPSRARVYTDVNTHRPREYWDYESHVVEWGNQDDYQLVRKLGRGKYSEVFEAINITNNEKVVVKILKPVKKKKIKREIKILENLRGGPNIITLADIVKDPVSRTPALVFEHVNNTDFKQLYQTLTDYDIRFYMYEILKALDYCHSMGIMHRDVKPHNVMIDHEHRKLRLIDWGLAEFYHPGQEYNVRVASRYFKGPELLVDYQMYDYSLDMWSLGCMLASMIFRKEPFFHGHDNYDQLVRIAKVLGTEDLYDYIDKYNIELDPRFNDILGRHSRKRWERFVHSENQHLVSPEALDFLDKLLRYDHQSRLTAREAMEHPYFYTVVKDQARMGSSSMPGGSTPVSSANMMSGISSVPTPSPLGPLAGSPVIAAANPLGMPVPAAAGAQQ
Chain of CK2 (P67870 whole entry partner): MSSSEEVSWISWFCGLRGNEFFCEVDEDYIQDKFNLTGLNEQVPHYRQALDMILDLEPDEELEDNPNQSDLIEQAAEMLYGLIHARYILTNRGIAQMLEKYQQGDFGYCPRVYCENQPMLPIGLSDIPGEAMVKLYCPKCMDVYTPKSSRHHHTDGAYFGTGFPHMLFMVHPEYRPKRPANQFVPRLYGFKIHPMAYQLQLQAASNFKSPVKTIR

Consider `O=c1[nH]c(-c2ccccc2Cl)nc2c1oc1ccc(Br)cc12` [Compound 30, 8-Bromo-2-(2-chlorophenyl)[1]benzofuro[3,2-d]pyrimidin-4(3H)-one], for which, at CDC7 (setting [2]), the pIC50 is greater than 5.00.

For `COc1ccc2oc3c(=O)[nH]c(-c4ccccc4Cl)nc3c2c1` [Compound 32, 2-(2-Chlorophenyl)-8-(methyloxy)[1]benzofuro[3,2-d]pyrimidin-4(3H)-one], the negative logarithm of the IC50 (pIC50) at CDC7 (setting [2]) was greater than 5.00. Same read-out and setting: the value for `CN1C[C@@H]2C[C@H]1CN2Cc1nc2c(oc3ccc(Br)cc32)c(=O)[nH]1` [Compound 142, 8-bromo-2-{[(1S,4S)-5-methyl-2,5-diazabicyclo[2.2.1]hept-2-yl]methyl}[1]benzofuro[3,2-d]pyrimidin-4(3H)-one] was greater than 5.00. As for `O=c1[nH]c(CN2CC(O)C2)nc2c1oc1ccc(Br)cc12` [Compound 183, 8-bromo-2-[(3-hydroxyazetidin-1-yl)methyl][1]benzofuro[3,2-d]pyrimidin-4(3H)-one], the negative logarithm of the IC50 (pIC50) was greater than 5.00 at CDC7 (setting [2]) and greater than 7.00 on CDC7 (compounds in Table 1, read-out: CDC7 IC50 value). Regarding `O=c1[nH]c(CN2CC[C@H](O)C2)nc2c1oc1ccc(C#CCO)cc12` [Compound 454, 8-(3-hydroxyprop-1-yn-1-yl)-2-{[(3S)-3-hydroxypyrrolidin-1-yl]methyl}[1]benzofuro[3,2-d]pyrimidin-4(3H)-one], the pIC50 (in experiment [1]; on CK2) was greater than 5.00 in each case. Regarding `O=c1[nH]c(CN2CC[C@H](O)C2)nc2c1oc1ccc(CCCO)cc12` [Compound 455, 8-(3-hydroxypropyl)-2-{[(3S)-3-hydroxypyrrolidin-1-yl]methyl}[1]benzofuro[3,2-d]pyrimidin-4(3H)-one], the negative-log IC50 (pIC50) (in experiment [1]; at CK2) was greater than 5.00 each time.

In the case of `O=c1[nH]c(CN2CC[C@H](O)C2)nc2c1oc1ccc(C#CCCCCO)cc12` [Compound 456, 8-(6-hydroxyhex-1-yn-1-yl)-2-{[(3S)-3-hydroxypyrrolidin-1-yl]methyl}[1]benzofuro[3,2-d]pyrimidin-4(3H)-one], the pIC50 (in experiment [1]; on CK2) was greater than 5.00 each time.

Take `O=c1[nH]c(CN2CC[C@H](O)C2)nc2c1oc1ccc(CCCCCCO)cc12` [Compound 457, 8-(6-hydroxyhexyl)-2-{[(3S)-3-hydroxypyrrolidin-1-yl]methyl}[1]benzofuro[3,2-d]pyrimidin-4(3H)-one]: the pIC50 (in experiment [1]; at CK2) was greater than 5.00 throughout.

As to `Cc1ccccc1CNc1ccc2oc3c(=O)[nH]c(CN4CC[C@H](O)C4)nc3c2c1` [Compound 461, 2-{[(3S)-3-hydroxypyrrolidin-1-yl]methyl}-8-{[(2-methylphenyl)methyl]amino}[1]benzofuro[3,2-d]pyrimidin-4(3H)-one], the pIC50 (in experiment [1]; on CK2) was greater than 5.00 each time. In the case of `O=c1[nH]c(CN2CC[C@H](O)C2)nc2c1oc1ccc(NCc3ccccc3F)cc12` [Compound 462], the negative-log IC50 (pIC50) (in experiment [1]; on CK2) was greater than 5.00 in each case.

`O=c1[nH]c(CN2CC[C@H](O)C2)nc2c1oc1ccc(NCc3ccccn3)cc12` [Compound 463, 2-{[(3S)-3-hydroxypyrrolidin-1-yl]methyl}-8-[(pyridin-2-ylmethyl)amino][1]benzofuro[3,2-d]pyrimidin-4(3H)-one]: the pIC50 (in experiment [1]; on CK2) was greater than 5.00 throughout. Consider `O=c1[nH]c(CN2CC[C@H](O)C2)nc2c1oc1ccc(NCc3cccc(C(F)(F)F)c3)cc12` [Compound 464, 2-{[(3S)-3-hydroxypyrrolidin-1-yl]methyl}-8-({[3-(trifluoromethyl)phenyl]methyl}amino)[1]benzofuro[3,2-d]pyrimidin-4(3H)-one], for which the pIC50 (in experiment [1]; at CK2) was greater than 5.00 throughout.

`O=c1[nH]c(CN2CC[C@H](O)C2)nc2c1oc1ccc(NCc3ccc(F)cc3F)cc12` [Compound 465, 8-{[(2,4-difluorophenyl)methyl]amino}-2-{[(3S)-3-hydroxypyrrolidin-1-yl]methyl}[1]benzofuro[3,2-d]pyrimidin-4(3H)-one]: the pIC50 (in experiment [1]; at CK2) was greater than 5.00 throughout.

Regarding `COc1ccccc1CNc1ccc2oc3c(=O)[nH]c(CN4CC[C@H](O)C4)nc3c2c1` [Compound 466, 2-{[(3S)-3-hydroxypyrrolidin-1-yl]methyl}-8-({[2-(methyloxy)phenyl]methyl}amino)[1]benzofuro[3,2-d]pyrimidin-4(3H)-one], the pIC50 (in experiment [1]; at CK2) was greater than 5.00 each time.

Consider `COc1cccc(CNc2ccc3oc4c(=O)[nH]c(CN5CC[C@H](O)C5)nc4c3c2)c1` [Compound 467, 2-{[(3S)-3-hydroxypyrrolidin-1-yl]methyl}-8-({[3-(methyloxy)phenyl]methyl}amino)[1]benzofuro[3,2-d]pyrimidin-4(3H)-one], for which the negative logarithm of the IC50 (pIC50) (in experiment [1]; at CK2) was greater than 5.00 each time. For `COc1ccc(CNc2ccc3oc4c(=O)[nH]c(CN5CC[C@H](O)C5)nc4c3c2)cc1` [Compound 468, 2-{[(3S)-3-hydroxypyrrolidin-1-yl]methyl}-8-({[4-(methyloxy)phenyl]methyl}amino)[1]benzofuro[3,2-d]pyrimidin-4(3H)-one], the pIC50 (in experiment [1]; on CK2) was greater than 5.00 throughout. As to `O=c1[nH]c(CN2CC[C@H](O)C2)nc2c1oc1ccc(NCCc3cccc(F)c3)cc12` [Compound 472, 8-{[2-(3-fluorophenyl)ethyl]amino}-2-{[(3S)-3-hydroxypyrrolidin-1-yl]methyl}[1]benzofuro[3,2-d]pyrimidin-4(3H)-one], the pIC50 (in experiment [1]; at CK2) was greater than 5.00 each time. Take `O=c1[nH]c(CN2CC[C@H](O)C2)nc2c1oc1ccc(NCCc3cccc(C(F)(F)F)c3)cc12` [Compound 473, 2-{[(3S)-3-hydroxypyrrolidin-1-yl]methyl}-8-({2-[3-(trifluoromethyl)phenyl]ethyl}amino)[1]benzofuro[3,2-d]pyrimidin-4(3H)-one]: the pIC50 (in experiment [1]; at CK2) was greater than 5.00 in each case. For the compound `COc1ccc(CCNc2ccc3oc4c(=O)[nH]c(CN5CC[C@H](O)C5)nc4c3c2)cc1OC` [Compound 474, 8-({2-[3,4-bis(methyloxy)phenyl]ethyl}amino)-2-{[(3S)-3-hydroxypyrrolidin-1-yl]methyl}[1]benzofuro[3,2-d]pyrimidin-4(3H)-one], the pIC50 (in experiment [1]; on CK2) was greater than 5.00 in each case. On to `O=c1[nH]c(CN2CC[C@H](O)C2)nc2c1oc1ccc(OCc3ccccc3)cc12` [Compound 475, 2-{[(3S)-3-hydroxypyrrolidin-1-yl]methyl}-8-[(phenylmethyl)oxy][1]benzofuro[3,2-d]pyrimidin-4(3H)-one], for which the negative-log IC50 (pIC50) (in experiment [1]; at CK2) was greater than 5.00 each time. Take `CC(C)COc1ccc2oc3c(=O)[nH]c(CN4CC[C@H](O)C4)nc3c2c1` [Compound 477, 2-{[(3S)-3-hydroxypyrrolidin-1-yl]methyl}-8-[(2-methylpropyl)oxy][1]benzofuro[3,2-d]pyrimidin-4(3H)-one]: the pIC50 (in experiment [1]; on CK2) was greater than 5.00 in each case. As to `CCOC(=O)Cc1ccc2oc3c(=O)[nH]c(CN4CC[C@H](O)C4)nc3c2c1` [Compound 491, ethyl (2-{[(3S)-3-hydroxypyrrolidin-1-yl]methyl}-4-oxo-3,4-dihydro[1]benzofuro[3,2-d]pyrimidin-8-yl)acetate], the negative-log IC50 (pIC50) (in experiment [1]; on CK2) was greater than 5.00 in each case.
